Source: patent US20250051315A1, “COMPOUND, ANGIOTENSIN II TYPE 1 RECEPTOR ANTAGONIST AND PHARMACEUTICAL COMPOSITION” (Alchemedicine, Inc., priority 2021, published 2025)

Tests used:
[1] = test system: Angiotensin II-Induced Hypertensive Activity; test: Suppressive effect on angiotensin II-induced hypertensive activity; assay type: in vivo; conditions: anesthetized male Wistar rats; 1 mg/kg intravenously over 10 minutes, then ATII 300 ng/kg i.v.; 20 seconds after ATII; n=3
Procedure: Male Wistar rats aged 8 to 12 weeks underwent catheterization of the trachea for airway management, catheterization of the carotid artery for blood pressure measurement, and catheterization of the femoral vein for angiotensin II (ATII) administration, under analgesic treatment and urethane anesthesia. After confirming that blood pressure and heart rate had stabilized, 1 mg/kg (15 mL/kg) of solvent (PBS) or test substance (the compound of Example 1) adjusted with the solvent was administered intravenously over 10 minutes. Then, ATII (300 ng/kg) was administered intravenously and blood pressure was monitored until 10 minutes after administration. The test was performed with n=3 in each group. For analysis, using 2 minutes before ATII administration as a pre-value, the systolic and diastolic blood pressures at the pre-value and 20 seconds immediately after ATII administration, when the blood pressure is maximum, were determined and the differences (delta values) from the pre-values were calculated. Student's t-test was used to compare the delta values between the solvent administration group and test substance administration group.

[2] = target: T1, human angiotensin II type 1 receptor (Homo sapiens, UniProt P30556); test: Angiotensin II type 1 receptor inhibitory effect (aequorin luminescence, angiotensin II at EC80); assay type: cell-based; conditions: CHO-K1-mt aequorin-Gα16 cells expressing human AT1 receptor
T1 construct: expressed in transfected cells; host or cells: CHO-K1-mt aequorin-Gα16 cells
T1 sequence (P30556 1-359): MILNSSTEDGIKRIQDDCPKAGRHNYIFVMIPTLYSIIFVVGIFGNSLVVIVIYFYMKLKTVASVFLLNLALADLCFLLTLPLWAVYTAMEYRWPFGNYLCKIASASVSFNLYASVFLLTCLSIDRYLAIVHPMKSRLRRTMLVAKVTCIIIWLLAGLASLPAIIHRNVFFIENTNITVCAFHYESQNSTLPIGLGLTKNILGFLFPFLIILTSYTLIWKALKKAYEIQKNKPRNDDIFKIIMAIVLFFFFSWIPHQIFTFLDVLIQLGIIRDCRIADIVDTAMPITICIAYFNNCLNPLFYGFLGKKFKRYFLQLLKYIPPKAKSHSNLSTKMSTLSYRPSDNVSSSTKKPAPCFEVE
Procedure: The inhibitory effect on angiotensin II type 1 receptor was studied by the following method.
CHO-K1-mt aequorin-Gα16 cells forced to express human angiotensin II type 1 receptor (Accession Number: NP 000676.1) were cultured in an antibiotic-free medium for 18 hours and then treated with PBS-EDTA (5 mM EDTA). After centrifugation (2 minutes, 405×g, room temperature), the cells were suspended in assay buffer (DMEM/HAM's F12 with HEPES+0.1% BSA protease free).
1×10^6 cells/mL of the cells were incubated at room temperature for 4 hours or more in the presence of Coelenterazin h (Molecular Probes) at a final concentration of 5 µM to confirm the agonist response by angiotensin II, and determine the concentration of angiotensin II corresponding to EC 80.
(§1) Then, 50 μL of the cell suspension treated with Coelenterazin h at 10,000 cells/well and 50 μL of assay buffer containing the test substance (final concentration: 0.5% DMSO) were added to a 96-well plate. After 15 minutes, 100 μL of angiotensin II solution was added so that the final concentration reached the EC80 concentration, and the receptor activity was measured by the amount of luminescence using FDSS6000 (Hamamatsu Photonics). IC50 values were calculated using XLfit (IDBS).

[3] = target: T2, human endothelin A receptor (Homo sapiens, UniProt P25101); test: Endothelin A receptor inhibitory effect (aequorin luminescence, endothelin at EC80); assay type: cell-based; conditions: CHO-K1-mt aequorin cells expressing human endothelin A receptor, read-out: ETA Receptor Inhibitory Effect
T2 construct: expressed in transfected cells; host or cells: CHO-K1-mt aequorin cells
T2 sequence (P25101 21-427): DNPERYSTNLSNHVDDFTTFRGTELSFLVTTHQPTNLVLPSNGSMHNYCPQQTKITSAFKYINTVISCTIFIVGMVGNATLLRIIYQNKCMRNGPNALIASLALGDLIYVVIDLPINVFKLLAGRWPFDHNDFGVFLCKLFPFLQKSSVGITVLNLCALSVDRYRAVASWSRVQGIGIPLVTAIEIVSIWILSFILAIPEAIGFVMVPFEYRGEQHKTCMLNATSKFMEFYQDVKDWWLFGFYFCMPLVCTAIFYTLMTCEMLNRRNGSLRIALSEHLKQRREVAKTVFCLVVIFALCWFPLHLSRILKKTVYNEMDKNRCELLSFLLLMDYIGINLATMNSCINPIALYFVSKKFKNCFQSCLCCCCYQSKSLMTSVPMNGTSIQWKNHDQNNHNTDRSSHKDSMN
Procedure: The inhibitory effect on endothelin A receptor was studied by the following method.
CHO-K1-mt aequorin cells forced to express human endothelin A receptor (Accession Number: NP_001948.1) were cultured in an antibiotic-free medium for 18 hours and then treated with PBS-EDTA (5 mM EDTA). After centrifugation (2 minutes, 405×g, room temperature), the cells were suspended in assay buffer (DMEM/HAM'S F12 with HEPES+0.1% BSA protease free). 1×10^6 cells/mL of the cells were incubated at room temperature for 4 hours in the presence of Coelenterazin h (Molecular Probes) at a final concentration of 5 μM to confirm the agonist response by endothelin, and determine the concentration of endothelin corresponding to EC 80.
as §1, with “endothelin” for “100 μL of angiotensin II solution”

| Structure (SMILES) | Diastolic Blood Pressure, difference (delta value) from pre-value [1] | Systolic Blood Pressure, difference (delta value) from pre-value [1] | IC50 [2] | IC50 [3] |
| --- | --- | --- | --- | --- |
| CCCCC1=NC2(CCCC2)C(=O)N1Cc1ccc(-c2ccccc2S(=O)(=O)Nc2noc(C)c2C)c2c1COC2 [Example 1, 2-(7-((2-Butyl-4-oxo-1,3-diazaspiro[4,4]nona-1-en-3-yl)methyl)-1,3-dihydroisobenzofuran-4-yl)-N-(4,5-dimethylisoxazol-3-yl)benzenesulfonamide] | 9 ± 5 | 8 ± 3 | ≤ 1 nM | > 100 nM |
| CCCCC1=NC2(CCCC2)C(=O)N1Cc1ccc(-c2ccccc2S(=O)(=O)Nc2ncc(C)nc2OC)c2c1COC2 [Example 2, 2-(7-((2-Butyl-4-oxo-1,3-diazaspiro[4,4]nona-1-en-3-yl)methyl)-1,3-dihydroisobenzofuran-4-yl)-N-(3-methoxy-5-methylpyrazin-2-yl)benzenesulfonamide] | – | – | 1 to 100 nM | 1 to 100 nM |
| CCCCC1=NC2(CCCC2)C(=O)N1Cc1ccc(-c2ccccc2S(=O)(=O)Nc2noc(C)c2Cl)c2c1COC2 [Example 3, 2-(7-((2-Butyl-4-oxo-1,3-diazaspiro[4,4]nona-1-en-3-yl)methyl)-1,3-dihydroisobenzofuran-4-yl)-N-(4-chloro-5-methylisoxazol-3-yl)benzenesulfonamide] | – | – | 1 to 100 nM | 1 to 100 nM |
